EC50 and Emax data for 25 compounds are collected here from patent publication US10130615B2, “Benzomorphan analogs and the use thereof” (priority 2014, dated 2018).

Where two headings read alike, the source gives them in different places. Bounds are passed on as bounds.

Assay [1] addresses T1, μ-opioid receptor (Homo sapiens, UniProt P35372). Description: μ-opioid receptor GTPγS functional assay, U2OS cells. Conditions: for Emax: read-out: GTPγS μ Emax.
Assay [2] deals with T1, μ-opioid receptor. Description: biochemical. Also on record: purchased Perkin Elmer, Shelton, Conn; host or cells: HEK-293 or CHO. The settings on record: HEK-293 or CHO cells; for EC50: read-out: GTPγS μ EC50; for Emax: relative to DAMGO, read-out: GTPγS μ Emax.
In another assay the target is κ-opioid receptor (Homo sapiens, UniProt P41145). Description: κ-opioid receptor GTPγS functional assay, U2OS cells. It is filed as biochemical. The arrangement: expressed in transfected cells; host or cells: U-2 OS. As to the method: Plates were incubated for 30 min at a temperature of about 25° C. with shaking.
Setting [3] is: U2OS cells, read-out: GTPγS κ EC50.

T1 sequence (P35372 whole entry, species assumed): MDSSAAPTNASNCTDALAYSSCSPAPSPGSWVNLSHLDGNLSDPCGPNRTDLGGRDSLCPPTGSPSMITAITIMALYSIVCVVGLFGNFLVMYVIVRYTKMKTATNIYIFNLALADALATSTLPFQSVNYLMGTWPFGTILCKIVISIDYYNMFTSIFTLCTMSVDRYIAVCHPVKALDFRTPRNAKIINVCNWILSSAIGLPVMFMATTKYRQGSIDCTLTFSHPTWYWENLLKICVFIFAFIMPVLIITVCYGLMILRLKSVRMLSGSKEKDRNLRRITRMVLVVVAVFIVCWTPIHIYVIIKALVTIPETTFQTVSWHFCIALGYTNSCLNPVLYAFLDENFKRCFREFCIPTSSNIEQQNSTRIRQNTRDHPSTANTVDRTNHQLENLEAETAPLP
κ-opioid receptor, sequence (P41145 whole entry): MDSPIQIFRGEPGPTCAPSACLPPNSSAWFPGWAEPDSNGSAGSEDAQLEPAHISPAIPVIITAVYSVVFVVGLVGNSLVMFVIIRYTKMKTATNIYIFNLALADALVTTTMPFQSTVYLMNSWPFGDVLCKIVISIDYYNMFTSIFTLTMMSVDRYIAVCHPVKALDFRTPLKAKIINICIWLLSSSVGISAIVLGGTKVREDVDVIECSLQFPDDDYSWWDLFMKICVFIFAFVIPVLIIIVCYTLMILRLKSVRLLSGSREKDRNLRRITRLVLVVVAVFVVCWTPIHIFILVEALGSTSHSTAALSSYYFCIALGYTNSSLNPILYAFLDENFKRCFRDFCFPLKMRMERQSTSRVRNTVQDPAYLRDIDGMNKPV

Regarding `C[C@H]1[C@H]2Cc3ccc(O)cc3C1(CCNS(=O)(=O)N(C)C)CCN2CC1CC1` [Compound 9], on μ-opioid receptor [1], it took 0.00067 ± 1e-05 µM to reach a half-maximal effect (EC50) and the Emax was 27%.

Regarding `C[C@@H]1[C@@H]2Cc3ccc(O)cc3[C@@]1(CCN1CCC(N(C3CC3)S(=O)(=O)c3ccccc3)CC1)CCN2C` [Compound 14, N-cyclopropyl-N-(1-(2-((2S,6S,11S)-8-hydroxy-3,11-dimethyl-2,3,4,5-tetrahydro-2,6-methanobenzo[d]azocin-6(1H)-yl)ethyl)piperidin-4-yl)-benzenesulfonamide], at μ-opioid receptor [2], the EC50 amounted to 11.9 ± 1.22 µM and the Emax came to 69 ± 0.58%.

As to `C[C@@H]1[C@@H]2Cc3ccc(O)cc3[C@@]1(CCN1CCN(C(c3ccc(F)cc3)c3ccc(F)cc3)CC1)CCN2C` [Compound 15, (2S,6S,11S)-6-(2-(4-(bis(4-fluoro-phenyl)methyl)piperazin-1-yl)ethyl)-3,11-dimethyl-1,2,3,4,5,6-hexahydro-2,6-methanobenzo[d]azocin-8-ol], on μ-opioid receptor [2], the EC50 was determined as 3.46 ± 0.314 µM and the Emax amounted to 97.7 ± 1.76%.

Turning to `C[C@H]1[C@H]2Cc3ccc(O)cc3[C@]1(CCNCc1ccc(F)cc1)CCN2CC1CC1` [Compound 16, (2R,6R,11R)-3-(cyclopropylmethyl)-6-(2-((4-fluorobenzyl)amino)ethyl)-11-methyl-1,2,3,4,5,6-hexahydro-2,6-methanobenzo[d]azocin-8-ol], on μ-opioid receptor [2], the EC50 was found to be 0.00304 ± 0.00026 µM and the Emax came to 10.8 ± 1.25%.

For `C[C@H]1[C@H]2Cc3ccc(O)cc3[C@]1(CCNCc1ccco1)CCN2CC1CC1` [Compound 17, (2R,6R,11R)-3-(cyclopropylmethyl)-6-(2-((furan-2-ylmethyl)amino)ethyl)-11-methyl-1,2,3,4,5,6-hexahydro-2,6-methanobenzo[d]azocin-8-ol], the Emax at μ-opioid receptor [2] is -0.88 ± 0.94%.

`C[C@H]1[C@H]2Cc3ccc(O)cc3[C@]1(CCNC(=O)NS(=O)(=O)c1ccc(F)cc1)CCN2CC1CC1` [Compound 19, N-((2-((2R,6R,11R)-3-(cyclopropyl-methyl)-8-hydroxy-11-methyl-2,3,4,5-tetrahydro-2,6-methanobenzo[d]azocin-6(1H)-yl)ethyl)carbamoyl)-4-fluoro-benzenesulfonamide]: on μ-opioid receptor [2], the EC50 is 0.0173 ± 0.00699 µM and the Emax is 10.1 ± 0.98%.

Consider `C[C@H]1[C@H]2Cc3ccc(O)cc3[C@]1(CCN1CCCC1)CCN2C` [Compound 20, (2R,6R,11R)-3,11-dimethyl-6-(2-(pyrrolidin-1-yl)ethyl)-1,2,3,4,5,6-hexahydro-2,6-methanobenzo[d]azocin-8-ol], for which the Emax on μ-opioid receptor [2] was found to be 108 ± 10.1%.

As for `C[C@H]1[C@H]2Cc3ccc(O)cc3[C@]1(CCN(C)C)CCN2C` [Compound 22, (2R,6R,11R)-6-(2-(dimethyl-amino)-ethyl)-3,11-dimethyl-1,2,3,4,5,6-hexahydro-2,6-methanobenzo[d]azocin-8-ol], on μ-opioid receptor [2], the EC50 was 1.07 ± 0.143 µM and the Emax was found to be 37.3 ± 1%.

In the case of `COc1ccc2c(c1)[C@@]1(CCNC3(C(=O)O)CC3)CCN(CC3CC3)[C@@H](C2)[C@H]1C` [Compound 35, 1-((2-((2S,6S,11S)-3-(cyclopropyl-methyl)-8-methoxy-11-methyl-2,3,4,5-tetrahydro-2,6-methanobenzo[d]azocin-6(1H)-yl)ethyl)amino)cyclopropane-1-carboxylic acid], on μ-opioid receptor [2], the EC50 was 17.5 ± 6.78 µM and the Emax amounted to 13 ± 1.53%.

Take `COc1ccc2c(c1)[C@@]1(CCNCC(=O)O)CCN(CC3CC3)[C@@H](C2)[C@H]1C` [Compound 39, (2-((2S,6S,11S)-3-(cyclopropylmethyl)-8-methoxy-11-methyl-2,3,4,5-tetrahydro-2,6-methanobenzo[d]azocin-6(1H)-yl)ethyl)glycine]: on μ-opioid receptor [2], the Emax was found to be 19.7 ± 3.18%.

As to `COc1ccc2c(c1)[C@@]1(CCN[C@H](C(=O)O)C(C)C)CCN(CC3CC3)[C@@H](C2)[C@H]1C` [Compound 41, (2-((2S,6S,11S)-3-(cyclopropylmethyl)-8-methoxy-11-methyl-2,3,4,5-tetrahydro-2,6-methanobenzo[d]azocin-6(1H)-yl)ethyl)-L-valine], the Emax at μ-opioid receptor [2] was found to be 0%.

Regarding `COc1ccc2c(c1)[C@@]1(CCOCc3ccccc3)CCN(C)[C@@H](C2)[C@H]1C` [Compound 47, (2S,6R,11S)-6-(2-(benzyloxy)ethyl)-8-methoxy-3,11-dimethyl-1,2,3,4,5,6-hexahydro-2,6-methanobenzo[d]azocine], the Emax on κ-opioid receptor (U2OS cells) stood at 99.3 ± 0.67%; on μ-opioid receptor [1] it was 72.3 ± 3.84%. For the same compound, the EC50 on κ-opioid receptor (setting [3]) was determined as 3.75 ± 0.207 µM; on μ-opioid receptor [1], 8.99 ± 1.63 µM.

For the compound `COc1ccc2c(c1)[C@@]1(CCO)CCN(C)[C@@H](C2)[C@H]1C` [Compound 49, 2-((2S,6R,11S)-8-methoxy-3,11-dimethyl-2,3,4,5-tetrahydro-2,6-methanobenzo-[d]azocin-6(1H)-yl)ethan-1-ol], the Emax on κ-opioid receptor (U2OS cells) is 41 ± 4.58%; at μ-opioid receptor [1], 21%.

Take `COc1ccc2c(c1)[C@]1(CCO)CCN(C)[C@H](C2)[C@@H]1C` [Compound 50, 2-((2R,6S,11R)-8-methoxy-3,11-dimethyl-2,3,4,5-tetrahydro-2,6-methano-benzo[d]azocin-6(1H)-yl)ethan-1-ol]: the values for the EC50 at κ-opioid receptor and on μ-opioid receptor [1] were above 2.32 µM and 2.39 ± 0.271 µM, respectively. The Emax on κ-opioid receptor (U2OS cells) came to 103 ± 8.41%; on μ-opioid receptor [1], 88.3 ± 7.62%.

On to `COc1ccc2c(c1)[C@]1(CCNCCc3ccc(S(N)(=O)=O)cc3)CCN(C)[C@H](C2)[C@@H]1C` [Compound 51, 4-(2-((2-((2R,6R,11R)-8-methoxy-3,11-dimethyl-2,3,4,5-tetrahydro-2,6-methanobenzo[d]azocin-6(1H)-yl)ethyl)-amino)ethyl)benzenesulfonamide], for which the Emax on κ-opioid receptor (U2OS cells) was 96.3 ± 0.67%; at μ-opioid receptor [1] it was 76.7 ± 3.71%. The EC50 on κ-opioid receptor (setting [3]) amounted to 6.28 ± 0.318 µM; on μ-opioid receptor [1], 6.71 ± 0.257 µM.

Consider `COc1ccc2c(c1)[C@]1(CCNC(=O)NS(=O)(=O)c3ccc(F)cc3)CCN(C)[C@H](C2)[C@@H]1C` [Compound 67, 4-fluoro-N-((2-((2R,6R,11R)-8-methoxy-3,11-dimethyl-2,3,4,5-tetrahydro-2,6-methanobenzo[d]azocin-6(1H)-yl)ethyl)-carbamoyl)benzene-sulfonamide], for which, at μ-opioid receptor [2], the EC50 worked out at 2.45 ± 0.692 µM and the Emax came out at 26.3 ± 3.38%.

In the case of `C[C@H]1[C@H]2Cc3ccc(O)cc3[C@]1(CCNC(=O)[C@@H]1CCCCN1)CCN2C` [Compound 70, (S)-N-(2-((2R,6R,11R)-8-hydroxy-3,11-dimethyl-2,3,4,5-tetrahydro-2,6-methano-benzo[d]azocin-6(1H)-yl)ethyl)-piperidine-2-carboxamide], on μ-opioid receptor [2], the EC50 was 0.783 ± 0.208 µM and the Emax was 27.7 ± 0.88%.

`C[C@H]1[C@H]2Cc3ccc(O)cc3[C@]1(CCNC(=O)[C@@H]1CCCN1)CCN2C` [Compound 71, (S)-N-(2-((2R,6R,11R)-8-hydroxy-3,11-dimethyl-2,3,4,5-tetrahydro-2,6-methano-benzo[d]azocin-6(1H)-yl)ethyl)-pyrrolidine-2-carboxamide]: on μ-opioid receptor [2], the EC50 amounted to 1.58 ± 0.177 µM and the Emax stood at 36 ± 0.58%.

With `C[C@H]1[C@H]2Cc3ccc(O)cc3[C@]1(CCNC(=O)NC(c1ccccc1)c1ccccc1)CCN2C` [Compound 73, 1-Benzhydryl-3-(2-((2R,6R,11R)-8-hydroxy-3,11-dimethyl-2,3,4,5-tetrahydro-2,6-methanobenzo[d]azocin-6(1H)-yl)ethyl)urea], at μ-opioid receptor [2], the EC50 came out at 0.00364 ± 0.00088 µM and the Emax worked out at 69.4 ± 1.22%.

On to `C[C@H]1[C@H]2Cc3ccc(O)cc3[C@]1(CCNC(=O)Nc1cccc(Oc3ccccc3)c1)CCN2C` [Compound 74, 1-(2-((2R,6R,11R)-8-hydroxy-3,11-dimethyl-2,3,4,5-tetrahydro-2,6-methanobenzo[d]azocin-6(1H)-yl)ethyl)-3-(3-phenoxyphenyl)urea], for which, at μ-opioid receptor [2], the 50% effective concentration (EC50) is 0.0184 ± 0.00209 µM and the Emax worked out at 52.1 ± 1.88%.

Take `C[C@H]1[C@H]2Cc3ccc(O)cc3[C@]1(CCNC(=O)NS(=O)(=O)c1ccccc1)CCN2C` [Compound 75, N-((2-((2R,6R,11R)-8-hydroxy-3,11-dimethyl-2,3,4,5-tetrahydro-2,6-methanobenzo[d]azocin-6(1H)-yl)-ethyl)carbamoyl)benzenesulfonamide]: on μ-opioid receptor [2], the EC50 is 0.314 ± 0.0302 µM and the Emax was 24.7 ± 0.17%.

For the compound `C[C@H]1[C@H]2Cc3ccc(O)cc3[C@]1(CCNC(=O)NCC(c1ccccc1)c1ccccc1)CCN2C` [Compound 77, 1-(2,2-diphenylethyl)-3-(2-((2R,6R,11R)-8-hydroxy-3,11-dimethyl-2,3,4,5-tetrahydro-2,6-methanobenzo[d]azocin-6(1H)-yl)ethyl)urea], on μ-opioid receptor [2], the half-maximal effective concentration (EC50) was determined as 0.00461 ± 0.00075 µM and the Emax came to 57.1 ± 2.33%.

Regarding `C[C@H]1[C@H]2Cc3ccc(O)cc3[C@]1(CCNC(=O)[C@@H]1CCC(=O)N1)CCN2CC1CC1` [Compound 81, (S)-N-(2-((2R,6R,11R)-3-(cyclopropyl-methyl)-8-hydroxy-11-methyl-2,3,4,5-tetrahydro-2,6-methanobenzo[d]azocin-6(1H)-yl)ethyl)-5-oxopyrrolidine-2-carboxamide], at μ-opioid receptor [2], the EC50 turned out to be 0.0181 ± 0.00415 µM and the Emax was 10.8 ± 0.96%.

As for `C[C@H]1[C@H]2Cc3ccc(O)cc3[C@]1(CCNC(=O)[C@@H]1CCCC(=O)N1)CCN2CC1CC1` [Compound 82, (S)-N-(2-((2R,6R,11R)-3-(cyclopropyl-methyl)-8-hydroxy-11-methyl-2,3,4,5-tetrahydro-2,6-methanobenzo[d]azocin-6(1H)-yl)ethyl)-6-oxopiperidine-2-carboxamide], on μ-opioid receptor [2], the EC50 stood at 0.0196 ± 0.00939 µM and the Emax is 8.9 ± 0.9%.

Regarding `COc1ccc2c(c1)[C@]1(CCNC(=O)[C@@H]3CCC(=O)N3)CCN(C)[C@H](C2)[C@@H]1C` [Compound 84, (S)-N-(2-((2R,6R,11R)-8-methoxy-3,11-dimethyl-2,3,4,5-tetrahydro-2,6-methano-benzo[d]azocin-6(1H)-yl)ethyl)-5-oxopyrrolidine-2-carboxamide], on μ-opioid receptor [2], the EC50 worked out at 12.4 ± 0.54 µM and the Emax was 32.4 ± 0.76%.

What is called EC50 is the concentration giving half of the maximal effect. Broadly, the Emax is the size of the effect at its maximum, as opposed to the concentration needed.
